According to the NIST ThermoML archive (doi:10.1016/j.jct.2017.03.032):

Assay: wn = mass fraction of the nth substance listed
Conditions: Gas, Burnett expansion method

F/C=C/C(F)(F)F [trans-1,3,3,3-tetrafluoropropene] + CC(C)C
Conditions	mass density [kg/m3]
315.14 K, 227.3 kPa, w1 = 0.65	7.7977
315.14 K, 297.2 kPa, w1 = 0.65	10.348
315.14 K, 301.4 kPa, w1 = 0.75	11.3213
315.14 K, 386 kPa, w1 = 0.65	13.7325
315.14 K, 392.5 kPa, w1 = 0.75	15.0241
315.14 K, 497.8 kPa, w1 = 0.65	18.2238
315.14 K, 506.8 kPa, w1 = 0.75	19.9379
315.14 K, 642.7 kPa, w1 = 0.75	26.4588
315.15 K, 173.5 kPa, w1 = 0.65	5.8759
315.15 K, 173.8 kPa, w1 = 0.7	6.1345
315.15 K, 175.6 kPa, w1 = 0.75	6.4285
315.15 K, 190.1 kPa, w1 = 0.85	7.5778
315.15 K, 229.1 kPa, w1 = 0.7	8.1409
315.15 K, 230.4 kPa, w1 = 0.75	8.531
315.15 K, 249.3 kPa, w1 = 0.85	10.0562
315.15 K, 299.1 kPa, w1 = 0.7	10.8034
315.15 K, 325.7 kPa, w1 = 0.85	13.3452
315.15 K, 390.1 kPa, w1 = 0.7	14.3368
315.15 K, 422.3 kPa, w1 = 0.85	17.7101
315.15 K, 497.7 kPa, w1 = 0.7	19.0258
315.15 K, 539.7 kPa, w1 = 0.85	23.5026
315.16 K, 185.3 kPa, w1 = 0.8	7.0584
315.16 K, 317.7 kPa, w1 = 0.8	12.4305
315.16 K, 333.2 kPa, w1 = 0.9	14.2331
315.16 K, 412.2 kPa, w1 = 0.8	16.4962
315.16 K, 529.7 kPa, w1 = 0.8	21.8918
315.17 K, 148.1 kPa, w1 = 0.9	6.0901
315.17 K, 194.6 kPa, w1 = 0.9	8.0819
315.17 K, 243 kPa, w1 = 0.8	9.3669
315.17 K, 255.2 kPa, w1 = 0.9	10.7253
315.17 K, 432.8 kPa, w1 = 0.9	18.8881
315.17 K, 551.9 kPa, w1 = 0.9	25.0657
320.12 K, 779.8 kPa, w1 = 0.8	33.8752
320.13 K, 286 kPa, w1 = 0.8	10.922
320.13 K, 373.2 kPa, w1 = 0.8	14.4942
320.13 K, 483.3 kPa, w1 = 0.8	19.2347
320.13 K, 616.7 kPa, w1 = 0.8	25.5259
320.14 K, 165.2 kPa, w1 = 0.8	6.2018
320.14 K, 168.8 kPa, w1 = 0.9	6.8698
320.14 K, 218.3 kPa, w1 = 0.8	8.2301
320.14 K, 221.7 kPa, w1 = 0.9	9.1166
320.14 K, 290.4 kPa, w1 = 0.9	12.0982
320.14 K, 378.8 kPa, w1 = 0.9	16.0551
320.14 K, 491 kPa, w1 = 0.9	21.3061
320.14 K, 621.3 kPa, w1 = 0.9	28.2744
320.15 K, 148.8 kPa, w1 = 0.7	5.1243
320.15 K, 195.8 kPa, w1 = 0.7	6.8002
320.15 K, 256.8 kPa, w1 = 0.7	9.0242
320.15 K, 335.6 kPa, w1 = 0.7	11.9756
320.15 K, 340.3 kPa, w1 = 0.65	11.7766
320.15 K, 435.2 kPa, w1 = 0.7	15.8926
320.15 K, 441.3 kPa, w1 = 0.65	15.6283
320.15 K, 556 kPa, w1 = 0.7	21.0901
320.15 K, 569.2 kPa, w1 = 0.65	20.7395
320.16 K, 152 kPa, w1 = 0.65	5.039
320.16 K, 154 kPa, w1 = 0.75	5.5344
320.16 K, 199.9 kPa, w1 = 0.65	6.687
320.16 K, 262 kPa, w1 = 0.65	8.8741
320.16 K, 266.1 kPa, w1 = 0.75	9.7466
320.16 K, 347.7 kPa, w1 = 0.75	12.9343
320.16 K, 577.4 kPa, w1 = 0.75	22.7785
320.16 K, 730.8 kPa, w1 = 0.75	30.2287
320.17 K, 203 kPa, w1 = 0.75	7.3444
320.17 K, 451.9 kPa, w1 = 0.75	17.1645
320.19 K, 162.2 kPa, w1 = 0.85	6.3277
320.19 K, 214.1 kPa, w1 = 0.85	8.3973
320.19 K, 279.4 kPa, w1 = 0.85	11.1439
320.19 K, 364.7 kPa, w1 = 0.85	14.7884
320.19 K, 472.3 kPa, w1 = 0.85	19.6252
320.19 K, 605 kPa, w1 = 0.85	26.0438
320.19 K, 764.8 kPa, w1 = 0.85	34.5619
325.1 K, 181 kPa, w1 = 0.85	6.9723
325.1 K, 219.4 kPa, w1 = 0.75	7.845
325.1 K, 287.7 kPa, w1 = 0.75	10.4108
325.1 K, 311.6 kPa, w1 = 0.85	12.2787
325.1 K, 374.7 kPa, w1 = 0.75	13.8158
325.1 K, 406.4 kPa, w1 = 0.85	16.2947
325.1 K, 488 kPa, w1 = 0.75	18.3343
325.1 K, 523.6 kPa, w1 = 0.85	21.624
325.1 K, 621.5 kPa, w1 = 0.75	24.3306
325.1 K, 668.2 kPa, w1 = 0.85	28.6964
325.1 K, 786.7 kPa, w1 = 0.75	32.2887
325.1 K, 844.6 kPa, w1 = 0.85	38.0818
325.11 K, 166.4 kPa, w1 = 0.7	5.6568
325.11 K, 167.1 kPa, w1 = 0.75	5.9115
325.11 K, 218.6 kPa, w1 = 0.7	7.5069
325.11 K, 237.8 kPa, w1 = 0.85	9.2525
325.11 K, 286.7 kPa, w1 = 0.7	9.9621
325.11 K, 373.4 kPa, w1 = 0.7	13.2204
325.11 K, 483.2 kPa, w1 = 0.7	17.5443
325.11 K, 617.3 kPa, w1 = 0.7	23.2823
325.13 K, 167.9 kPa, w1 = 0.65	5.518
325.13 K, 220.6 kPa, w1 = 0.65	7.3227
325.13 K, 289.1 kPa, w1 = 0.65	9.7176
325.13 K, 377.5 kPa, w1 = 0.65	12.8959
325.13 K, 484.7 kPa, w1 = 0.65	17.1136
325.13 K, 619.9 kPa, w1 = 0.65	22.7108
325.17 K, 238.4 kPa, w1 = 0.8	8.8968
325.17 K, 312.1 kPa, w1 = 0.8	11.8066
325.17 K, 407 kPa, w1 = 0.8	15.6681
325.17 K, 526.5 kPa, w1 = 0.8	20.7926
325.17 K, 669 kPa, w1 = 0.8	27.593
325.17 K, 846.3 kPa, w1 = 0.8	36.6175
325.18 K, 181.5 kPa, w1 = 0.8	6.704
325.18 K, 192.3 kPa, w1 = 0.9	7.7424
325.18 K, 252.4 kPa, w1 = 0.9	10.2747
325.18 K, 330.4 kPa, w1 = 0.9	13.6351
325.18 K, 430.4 kPa, w1 = 0.9	18.0945
325.18 K, 549.6 kPa, w1 = 0.9	24.0125
325.18 K, 703.2 kPa, w1 = 0.9	31.8661
330.12 K, 156.9 kPa, w1 = 0.75	5.446
330.12 K, 205.5 kPa, w1 = 0.75	7.2271
330.12 K, 271 kPa, w1 = 0.75	9.5908
330.12 K, 354.5 kPa, w1 = 0.75	12.7274
330.12 K, 457.3 kPa, w1 = 0.75	16.8904
330.12 K, 588.2 kPa, w1 = 0.75	22.4145
330.12 K, 750 kPa, w1 = 0.75	29.7454
330.12 K, 945.5 kPa, w1 = 0.75	39.4741
330.12 K, 981.5 kPa, w1 = 0.85	44.7652
330.13 K, 163.7 kPa, w1 = 0.85	6.1759
330.13 K, 215.1 kPa, w1 = 0.85	8.1958
330.13 K, 282.7 kPa, w1 = 0.85	10.876
330.13 K, 369.7 kPa, w1 = 0.85	14.4335
330.13 K, 612.7 kPa, w1 = 0.85	25.4187
330.13 K, 779.3 kPa, w1 = 0.85	33.7323
330.14 K, 476.1 kPa, w1 = 0.85	19.1537
330.2 K, 440.7 kPa, w1 = 0.7	15.4891
330.2 K, 559.7 kPa, w1 = 0.7	20.5552
330.2 K, 717.8 kPa, w1 = 0.7	27.2782
330.21 K, 338.1 kPa, w1 = 0.7	11.6715
330.21 K, 929.7 kPa, w1 = 0.9	43.8273
330.22 K, 153.7 kPa, w1 = 0.9	6.0465
330.22 K, 202.2 kPa, w1 = 0.9	8.024
330.22 K, 258.3 kPa, w1 = 0.7	8.7948
330.22 K, 265.5 kPa, w1 = 0.9	10.6483
330.22 K, 347.5 kPa, w1 = 0.9	14.131
330.22 K, 452.8 kPa, w1 = 0.9	18.7526
330.22 K, 576.5 kPa, w1 = 0.9	24.8861
330.22 K, 735.5 kPa, w1 = 0.9	33.0255
330.23 K, 145.4 kPa, w1 = 0.65	4.6896
330.23 K, 149.5 kPa, w1 = 0.7	4.9937
330.23 K, 192.1 kPa, w1 = 0.65	6.2233
330.23 K, 252.5 kPa, w1 = 0.65	8.2587
330.23 K, 272.1 kPa, w1 = 0.8	10.0277
330.23 K, 354.3 kPa, w1 = 0.8	13.3074
330.23 K, 463.4 kPa, w1 = 0.8	17.6597
330.23 K, 754.4 kPa, w1 = 0.8	31.1003
330.23 K, 951.7 kPa, w1 = 0.8	41.2719
330.24 K, 157.7 kPa, w1 = 0.8	5.6939
330.24 K, 196.7 kPa, w1 = 0.7	6.6269
330.24 K, 207.3 kPa, w1 = 0.8	7.5562
330.24 K, 330.6 kPa, w1 = 0.65	10.9596
330.24 K, 431.5 kPa, w1 = 0.65	14.544
330.24 K, 590.5 kPa, w1 = 0.8	23.435
330.24 K, 702.3 kPa, w1 = 0.65	25.6134
330.25 K, 548.5 kPa, w1 = 0.65	19.3004
